This experiment concerns the target T1, Neprilysin (Rattus norvegicus, UniProt P07861).
T1 sequence (P07861 whole entry): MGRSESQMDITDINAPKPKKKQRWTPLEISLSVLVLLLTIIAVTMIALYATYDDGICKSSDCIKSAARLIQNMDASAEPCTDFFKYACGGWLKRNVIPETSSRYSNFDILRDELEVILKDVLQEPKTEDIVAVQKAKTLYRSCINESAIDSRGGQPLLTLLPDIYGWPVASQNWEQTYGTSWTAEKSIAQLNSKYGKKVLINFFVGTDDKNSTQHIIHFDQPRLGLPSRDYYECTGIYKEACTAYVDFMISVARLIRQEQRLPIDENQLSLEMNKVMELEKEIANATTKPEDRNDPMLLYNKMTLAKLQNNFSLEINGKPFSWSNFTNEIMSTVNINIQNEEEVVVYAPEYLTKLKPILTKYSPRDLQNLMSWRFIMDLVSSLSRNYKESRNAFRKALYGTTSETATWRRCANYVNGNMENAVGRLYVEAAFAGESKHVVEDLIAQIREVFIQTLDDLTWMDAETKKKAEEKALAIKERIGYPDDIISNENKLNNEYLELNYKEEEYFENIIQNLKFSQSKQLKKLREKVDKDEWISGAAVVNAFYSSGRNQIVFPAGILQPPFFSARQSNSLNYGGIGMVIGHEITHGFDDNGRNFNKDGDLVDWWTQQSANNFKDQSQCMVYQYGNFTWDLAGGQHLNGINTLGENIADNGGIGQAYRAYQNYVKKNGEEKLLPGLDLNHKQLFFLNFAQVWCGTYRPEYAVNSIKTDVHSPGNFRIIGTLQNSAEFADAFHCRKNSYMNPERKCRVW
Put plainly: Inhibition of neutral endopeptidase (NEP).

pKi: −log10 of the molar value. Some results are limits rather than exact numbers.

For `O=C(OCc1ccccc1)[C@H](Cc1ccc(O)cc1)NC(=O)C1(CS)CCc2ccccc2C1` (some centres undefined), the pKi – broadly, the Ki on a negative log10 scale, so that one unit is a factor of ten – is 9.30.

For the compound `COC(=O)[C@H](Cc1ccccc1)NC(=O)C1(CS)CCc2ccccc2C1` (some centres undefined), the pKi was 8.40.

Compound `O=C(NCc1ccc2c(c1)OCO2)C1(CS)CCc2ccccc2C1` (centres undefined) showed a pKi of 7.85.

In turn, `COC(=O)[C@H](CC(C)C)NC(=O)C1(CS)CCc2ccccc2C1` (some centres undefined) gave a pKi of 8.15.

`CC(C)[C@H](NC(=O)C1(CS)CCc2ccccc2C1)C(=O)OCc1ccccc1` (some centres undefined) gave a pKi of 8.70.

With `O=C(O)CCCCCCNC(=O)C1(CS)CCc2ccccc2C1` (centres undefined), the pKi is 9.22.

Consider `O=C(O)[C@@H]1CCCC2c3ccccc3C[C@@H](CS)C(=O)N21` (some centres undefined), for which the pKi is 7.35.

Take `O=C(CNC(=O)C1(CS)CCc2ccccc2C1)OCc1ccccc1` (centres undefined): the negative-log Ki (pKi) is 9.40.

The compound `COC(=O)CCNC(=O)C1(CS)CCc2ccccc2C1` (centres undefined) showed a pKi of 9.70.

`O=C(CNC(=O)C1(CS)Cc2ccccc2C1)OCc1ccccc1`: the pKi is 8.00.

The compound `O=C(CS)N[C@H]1Cc2ccccc2C2CCC[C@@H](C(=O)O)N2C1=O` (some centres undefined) showed a pKi of 8.30.

`O=C(O)[C@@H]1CCCC2c3ccccc3C[C@H](CS)C(=O)N21` (some centres undefined) showed a pKi below 6.52.

Compound `C[C@H](NC(=O)C1(CS)CCc2ccccc2C1)C(=O)OCc1ccccc1` (some centres undefined) showed a pKi of 9.52.

In turn, `O=C(O)C1CCC(NC(=O)C2(CS)CCc3ccccc3C2)CC1` (centres undefined) showed a pKi of 9.22.

For the origin of these results see ChEMBL document CHEMBL1129152, “Synthesis of constrained thiorphan analogs as inhibitors of neutral endopeptidase” (Bioorg Med Chem Lett, 1996).
